{"source": "patent US20090098050A1", "about": "“CALCIUM BINDING PEPTIDES” (THE REGENTS OF THE UNVERSITY OF CALIFORNIA, priority 2005, published 2009)", "key": {"[1]": {"test": "Binding to calcium oxalate crystals (fluorescence microscopy)", "details": "12.5 μM labeled peptide, ten minutes", "protocol": "FIG. 11: Binding of 8DSS peptide to calcium oxalate. Calcium oxalate crystals were exposed to 12.5 μM 8DSS peptide, washed, and imaged by fluorescence microscopy as described in Example 12. […] The brightfield image (top) confirms the presence of crystals, while the fluorescence image of the same region (bottom) confirms that calcium oxalate has no visible fluorescence under these conditions. […] Calcium oxalate was prepared using a previously described method (Wang 2006). Crystals of calcium oxalate were washed with deionized water, then resuspended in a solution containing 50 mM HEPES pH 7.0, 10 mM NaCl, and 12.5 μM 5(6)-carboxyfluorescein-labeled 8DSS peptide. The crystal suspension was incubated at room temperature for ten minutes. The crystals were then harvested by centrifugation, washed twice with a solution of 50 mM HEPES pH 7.0 and 10 mM NaCl, and visualized by fluorescence microscopy as described in Example 11."}, "[2]": {"test": "Remineralization of demineralized rat femur (SEM)", "details": "peptide one hour, then Quell Desensitizer", "protocol": "FIG. 7: Mineralization of bone. Rat femurs were obtained from sacrificed animals under a shared tissue protocol. Samples were demineralized, rinsed, and ultrasonicated to remove debris. Test samples were treated with 8DSS peptide for one hour, rinsed, remineralized using Quell Desensitizer as described in Example 8, then imaged by Scanning Electron Microscopy. SEM images are shown. Top: untreated sample, showing the surface of the bone completely covered by mineral. Center: demineralized sample, showing Haversian canals exposed by removal of the mineral layer. Bottom: Bone treated with 8DSS and Quell Desensitizer (an aqueous CaCl2/K2HPO4 solution), showing reestablishment of the mineral layer.\nIn order to determine whether the remineralization results observed for tooth tissues can be extended to bone, rat femurs were obtained from sacrificed animals under a shared tissue protocol. Test samples were demineralized with 19% EDTA gel for one hour, followed by immersion in deionized water and ultrasonication to remove excess debris. Test samples were then treated with 8DSS peptide for one hour, rinsed, and half of the samples were remineralized using Quell Desensitizer (Pentron Clinical Technologies, LLC) as described in Example 5. All samples were then prepared for SEM and imaged as in Example 5. […] In the demineralized sample, the Haversian canals were clearly exposed (FIG. 7, middle panel). […]"}, "[3]": {"test": "Accumulation of calcium phosphate by immobilized peptide on streptavidin beads", "details": "biotin-conjugated peptide on beads, PBS+1 mM CaCl2+1 mM NaHPO4, twelve days", "protocol": "FIG. 3: Interaction of immobilized 8DSS peptide with CaHPO4. Streptavidin-coated polystyrene beads were incubated with biotin-conjugated 8DSS (A and C) or unconjugated biotin (B) and (D). Beads were washed and incubated in a solution of PBS+1 mM CaCl2+1 mM NaHPO4 for twelve days prior to imaging. A. Brightfield micrographs of aggregates of amorphous calcium phosphate that accumulated around DSS-coated beads. All calcium phosphate aggregates of significant size were associated with one or more beads. B. Brightfield image of representative biotin-blocked beads (no DSS peptide). No significant amount of precipitate was associated with these beads. C. Phase-contrast micrograph of a DSS-coated bead with a more ordered accretion of calcium phosphate around its exterior (note the spherical center of the object). These objects were not seen in control samples (biotin-blocked, no DSS peptide), as illustrated in (D). Scale Bars=4 μm. Streptavidin-coated polystyrene beads with an average diameter of 4 μm (Spherotech P.L.C.) were incubated with either biotin-conjugated 8DSS peptide or unconjugated biotin. Beads were washed with PBS to remove unbound peptide (or unbound biotin, in the case of the control beads) and incubated in a solution of PBS+1 mM CaCl2+1 mM NaHPO4 for twelve days prior to imaging. […] All calcium phosphate aggregates of significant size were associated with one or more beads. […]"}, "[4]": {"test": "Binding to inorganic phosphate precipitates (relative fluorescence)", "details": "12.5 μM labeled peptide, ten minutes, about 0.5% (w/v) salt", "protocol": "FIG. 10: Relative levels of 8DSS peptide binding to various inorganic phosphate precipitates. 100 mM sodium phosphate (pH 7.5) was combined with 100 mM solutions of MgCl2, CaCl2, MnCl2, CoCl2, NiSO4, CuSO4, and SrCl2, respectively. Suspensions were made of each phosphate salt at a concentration of approximately 0.5% (w/v) in the presence of 12.5 μM 5(6)-carboxyfluorescein-labeled 8DSS peptide. After a ten minute incubation at room temperature, samples were washed and imaged by fluorescence microscopy. The intensity of the fluorescent staining of the inorganic phosphate particles in each sample was assessed by measuring the pixel intensity values using the GIMP (www.gimp.org) as described in Example 11. Normalized fluorescence values are plotted here. […] On the Y-axis, the relative fluorescence intensity values are plotted.\nPhosphate salts of magnesium, calcium, manganese, cobalt, nickel, copper, and strontium were prepared by combining 100 mM sodium phosphate (pH 7.5) with 100 mM solutions of the chloride or sulfate salts of the aforementioned metal ions (MgCl2, CaCl2, MnCl2, CoCl2, NiSO4, CuSO4, and SrCl2, respectively). […] Each sample was incubated for ten minutes at room temperature, then washed twice with a solution of 50 mM HEPES pH 7.0 and 10 mM NaCl, resuspended in the same buffer, and imaged by fluorescence microscopy. […]"}}, "data": [{"substance": "8DSS: peptide containing eight Asp-Ser-Ser (DSS) repeats, SEQ ID NO:15 (DSSDSSDSSDSSDSSDSSDSSDSS; calcium binding peptide containing eight DSS repeats, 8DSS)", "values": [{"measurement": "Staining of calcium oxalate aggregates", "setting": "[1]", "value": "significant staining"}, {"measurement": "Remineralization of demineralized bone surface", "setting": "[2]", "value": "the mineral surface was restored and occlusion of the canals was observed"}, {"measurement": "Calcium phosphate accumulation around peptide-coated beads", "setting": "[3]", "value": "incorporated into large aggregates of precipitated amorphous calcium phosphate"}, {"measurement": "Fluorescent staining of CaHPO4 and SrHPO4 aggregates", "setting": "[4]", "value": "highest levels of staining"}, {"measurement": "Fluorescent staining of NiHPO4 aggregates", "setting": "[4]", "value": "small level of staining"}]}]}
